Measurements from US20250163104A1, “MACROCYCLIC IMMUNOMODULATORS” (priority 2021, published 2025).
Where a SMILES comes first, the peptide text is derived from it. Bridges are numbered along the chain shown (N, C = ends). [ ]: non-standard residue; d: D form. The star is where a group is joined. ξ: configuration not given here. Phe(4-COOH) = N[C@@H](Cc1ccc(C(=O)O)cc1)C(=O)O; Bip = N[C@@H](Cc1ccc(-c2ccccc2)cc1)C(=O)O; Phe(3-OMe) = COc1cccc(C[C@H](N)C(=O)O)c1; Phe(3-Me) = Cc1cccc(C[C@H](N)C(=O)O)c1; Val(3-OH) = CC(C)(O)[C@H](N)C(=O)O; mTyr = N[C@@H](Cc1cccc(O)c1)C(=O)O; ξW = NC(Cc1c[nH]c2ccccc12)C(=O)O; 4Pal = N[C@@H](Cc1ccncc1)C(=O)O; Cha = N[C@@H](CC1CCCCC1)C(=O)O; Cit = NC(=O)NCCC[C@H](N)C(=O)O; Thr(3ξ) = CC(O)[C@H](N)C(=O)O; dNle = CCCC[C@@H](N)C(=O)O; Carboxymethyl = O=C(O)C*; Orn = NCCC[C@H](N)C(=O)O; Dab = NCC[C@H](N)C(=O)O; Dap = NC[C@H](N)C(=O)O

What follows are molecules tested against T1, human PD-1 / PD-L1-Ig binding on Jurkat cell line over-expressing human PD-1 (Jurkat-PD-1) (Homo sapiens, UniProt Q15116) (assay: Jurkat-PD-1 Cell Binding High-Content Screening Assay (CBA)). Conditions: Jurkat HPD1_PDL1 IC50, Jurkat-PD-1 cells, PE-labeled PD-L1-Ig 20 nM final.
T1 construct: expressed in transfected cells; host or cells: Jurkat
T1 sequence (Q15116 25-288): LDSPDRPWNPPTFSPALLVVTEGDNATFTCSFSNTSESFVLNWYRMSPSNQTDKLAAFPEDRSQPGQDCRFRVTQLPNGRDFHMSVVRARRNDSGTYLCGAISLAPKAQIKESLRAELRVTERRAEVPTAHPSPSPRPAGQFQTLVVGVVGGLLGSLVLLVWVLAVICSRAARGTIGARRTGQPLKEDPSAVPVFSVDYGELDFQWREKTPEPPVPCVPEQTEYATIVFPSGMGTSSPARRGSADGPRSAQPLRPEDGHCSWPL
Type: cell-based
Method: Example 3. Jurkat-PD-1 Cell Binding High-Content Screening Assay (CBA)
Jurkat-PD-1 Cell Binding High-Content Screening Assay (CBA). Phycoerythrin (PE) was covalently linked to the Ig epitope tag of human PD-L1-Ig and fluorescently-labeled PD-L1-Ig was used for binding studies with a Jurkat cell line over-expressing human PD-1 (Jurkat-PD-1). Briefly, 8×10^3 Jurkat-hPD-1 cells were seeded into 384 well plates in 20 μl of DMEM supplemented with 10% fetal calf serum. 100 nL of compound was added to cells followed by incubation at 37° C. for 2 h. Then, 5 μl of PE-labeled PD-L1-Ig (20 nM final), diluted in DMEM supplemented with 10% fetal calf serum. After 1 hour incubation, cells were fixed with 4% paraformaldehyde in dPBS containing 10 μg/ml Hoechst 33342 and then washed 3x in 100 μl dPBS. Data was collected and processed using a Cell Insight NXT High Content Imager and associated software.

Question: For CC(C)C[C@H]1NC(=O)[C@H](CCCN)NC(=O)[C@H](C(C)C)NC(=O)[C@H](Cc2ccc(-c3ccccc3)cc2)NC(=O)[C@H](C(C)C)NC(=O)[C@H](Cc2c[nH]c3ccccc23)NC(=O)[C@H](CC(=O)O)NC(=O)[C@H](Cc2ccc(C(=O)O)cc2)NC(=O)[C@H](Cc2ccc(OCC(=O)O)cc2)NC(=O)CSC[C@@H](C(=O)N[C@@H](CCN)C(=O)N[C@@H](CCCNC(=N)N)C(=O)O)NC(=O)[C@H](CO)NC(=O)[C@H](C(C)C)NC(=O)[C@H](CC2CCCCC2)NC(=O)[C@H](CCN)NC1=O [Compound 2586] ({CH2CO}-Y(Carboxymethyl)[Phe(4-COOH)]DWV[Bip]V[Orn][dL][Dab][Cha]VSC[Dab]R-OH; thioether N-14), which IC50 is on record?
Answer: 10 nM

Same assay, conditions: Jurkat-PD-1 cells, PE-labeled PD-L1-Ig 20 nM final; read-out: Jurkat HPD1_PDL1 IC50

Question: For CC(C)C[C@H]1NC(=O)[C@H](CCCN)NC(=O)[C@H](CCC(=O)O)NC(=O)[C@H](Cc2ccc(-c3ccccc3)cc2)NC(=O)[C@H](C(C)C)NC(=O)[C@H](Cc2c[nH]c3ccccc23)NC(=O)[C@H](CC(=O)O)NC(=O)[C@H](Cc2ccc(OCC(=O)O)cc2)NC(=O)[C@H](CN)NC(=O)CSC[C@@H](C(=O)N[C@@H](C)C(N)=O)NC(=O)[C@H]([C@@H](C)O)NC(=O)[C@H](C(C)C)NC(=O)[C@H](Cc2cccc(O)c2)NC(=O)[C@H](CCN)NC1=O [Compound 1475] ({CH2CO}-[Dap]Y(Carboxymethyl)DWV[Bip]E[Orn][dL][Dab][mTyr]VTCA-NH2; thioether N-14), which IC50 is on record?
Answer: 120 nM

Question: With CC(C)C[C@@H]1NC(=O)[C@H](CCN)NC(=O)[C@@H](CC(C)C)NC(=O)[C@H](CCCCN)NC(=O)[C@H](CCCNC(=N)N)NC(=O)[C@H](Cc2ccc(-c3ccccc3)cc2)NC(=O)[C@H](C(C)C)NC(=O)[C@H](Cc2c[nH]c3ccccc23)NC(=O)[C@H](CC(=O)O)NC(=O)[C@H](Cc2ccc(O)cc2)NC(=O)[C@H](CC(N)=O)NC(=O)CSC[C@@H](C(=O)N[C@@H](C)C(N)=O)NC(=O)[C@H]([C@@H](C)O)NC(=O)[C@H](C(C)C)NC1=O [Compound 1008] ({CH2CO}-NYDWV[Bip]RK[dL][Dab]LVTCA-NH2; thioether N-14) as the molecule, how does the IC50 read?
Answer: 59.9 nM

Question: COc1cccc(C[C@@H]2NC(=O)[C@H](CC(=O)O)NC(=O)[C@H](Cc3ccc(OCC(=O)O)cc3)NC(=O)[C@H](Cc3ccncc3)NC(=O)CSC[C@@H](C(=O)N[C@@H](C)C(N)=O)NC(=O)[C@H]([C@@H](C)O)NC(=O)[C@H](C(C)C)NC(=O)[C@H](CC(C)C)NC(=O)[C@H](CCN)NC(=O)[C@@H](CC(C)C)NC(=O)[C@H](CCCN)NC(=O)[C@H](CCCNC(N)=O)NC(=O)[C@H](Cc3ccc(-c4ccccc4)cc3)NC(=O)[C@H](C(C)C)NC2=O)c1 [Compound 1185] ({CH2CO}-[4Pal]Y(Carboxymethyl)D[Phe(3-OMe)]V[Bip][Cit][Orn][dL][Dab]LVTCA-NH2; thioether N-14) was tested. Which IC50 did it give?
Answer: 7.4 nM

Question: How did the IC50 turn out when CCCC[C@H]1NC(=O)[C@H](CCCN)NC(=O)[C@H]([C@@H](C)CC)NC(=O)[C@H](Cc2ccc(-c3ccccc3)cc2)NC(=O)[C@H](C(C)C)NC(=O)[C@H](Cc2c[nH]c3ccccc23)NC(=O)[C@H](CC(=O)O)NC(=O)[C@H](Cc2ccncc2)NC(=O)[C@H](CN)NC(=O)CSC[C@@H](C(=O)N[C@@H](C)C(N)=O)NC(=O)[C@H]([C@@H](C)O)NC(=O)[C@H](C(C)C)NC(=O)[C@H](CC2CCCCC2)NC(=O)[C@H](CCN)NC1=O [Compound 1711] ({CH2CO}-[Dap][4Pal]DWV[Bip]I[Orn][dNle][Dab][Cha]VTCA-NH2; thioether N-14) was run?
Answer: 12.8 nM

Question: Which IC50 does the source give for CC(C)C[C@H]1NC(=O)[C@H](CCCN)NC(=O)[C@H](C(C)C)NC(=O)[C@H](Cc2ccc(-c3ccccc3)cc2)NC(=O)[C@H](C(C)C)NC(=O)[C@H](Cc2c[nH]c3ccccc23)NC(=O)[C@H](CC(=O)O)NC(=O)[C@H](Cc2ccc(C(=O)O)cc2)NC(=O)[C@H](Cc2ccncc2)NC(=O)CSC[C@@H](C(=O)N[C@@H](C)C(N)=O)NC(=O)[C@H]([C@@H](C)O)NC(=O)[C@H](C(C)C)NC(=O)[C@H](CC2CCCCC2)NC(=O)[C@H](CCN)NC1=O [Compound 1689] here?
Answer: 27 nM

Question: With CC(C)C[C@H]1NC(=O)[C@H](CCCN)NC(=O)[C@H](C(C)C)NC(=O)[C@H](Cc2ccc(-c3ccccc3)cc2)NC(=O)[C@H](C(C)C)NC(=O)[C@H](Cc2c[nH]c3ccccc23)NC(=O)[C@H](CC(=O)O)NC(=O)[C@H](Cc2ccc(C(=O)O)cc2)NC(=O)[C@H](Cc2ccc(OCC(=O)O)cc2)NC(=O)CSC[C@@H](C(=O)N[C@@H](C)C(N)=O)NC(=O)[C@H](CCCN)NC(=O)[C@H](C(C)C)NC(=O)[C@H](CC2CCCCC2)NC(=O)[C@H](CCN)NC1=O [Compound 1742] ({CH2CO}-Y(Carboxymethyl)[Phe(4-COOH)]DWV[Bip]V[Orn][dL][Dab][Cha]V[Orn]CA-NH2; thioether N-14) as the molecule, how does the IC50 read?
Answer: 6.6 nM

Question: CC(C)C[C@H]1NC(=O)[C@H](CCCN)NC(=O)[C@H](C(C)C)NC(=O)[C@H](Cc2ccc(-c3ccccc3)cc2)NC(=O)[C@H](C(C)C)NC(=O)[C@H](Cc2c[nH]c3ccccc23)NC(=O)[C@H](CC(=O)O)NC(=O)[C@H](Cc2ccc(OCC(=O)O)cc2)NC(=O)[C@H](CCCCNC(=N)N)NC(=O)CSC[C@@H](C(=O)N[C@@H](C)C(N)=O)NC(=O)[C@H](C(C)O)NC(=O)[C@H](C(C)C)NC(=O)[C@H](CC2CCCCC2)NC(=O)[C@H](Cc2c[nH]cn2)NC1=O (stereo partly drawn) [Compound 2555] was tested. Which IC50 did it give?
Answer: 19.5 nM

Question: For CCC[C@@H]1NC(=O)[C@H](Cc2ccc(-c3ccccc3)cc2)NC(=O)[C@H](C(C)C)NC(=O)[C@H](Cc2c[nH]c3ccccc23)NC(=O)[C@H](CC(=O)O)NC(=O)[C@H](Cc2ccc(C(=O)O)cc2)NC(=O)[C@H](Cc2ccncc2)NC(=O)CSC[C@@H](C(=O)N[C@@H](C)C(N)=O)NC(=O)[C@H]([C@@H](C)O)NC(=O)[C@H](C(C)C)NC(=O)[C@H](CC2CCCCC2)NC(=O)[C@H](Cc2cnc[nH]2)NC(=O)[C@@H](CC(C)C)NC(=O)[C@H](CCCN)NC1=O [Compound 1623], which IC50 is on record?
Answer: 27 nM

Question: COc1cccc(C[C@@H]2NC(=O)[C@H](CC(=O)O)NC(=O)[C@H](Cc3ccc(OCC(=O)O)cc3)NC(=O)[C@H](Cc3ccc(OCC(=O)O)cc3)NC(=O)CSC[C@@H](C(=O)N[C@@H](C)C(N)=O)NC(=O)[C@H]([C@@H](C)O)NC(=O)[C@H](C(C)C)NC(=O)[C@H](CC3CCCCC3)NC(=O)[C@H](CCN)NC(=O)[C@@H](CC(C)C)NC(=O)[C@H](CCCN)NC(=O)[C@H](CCC(=O)O)NC(=O)[C@H](Cc3ccc(-c4ccccc4)cc3)NC(=O)[C@H](C(C)C)NC2=O)c1 [Compound 1504] was tested. Which IC50 did it give?
Answer: 5.2 nM

Question: How did the IC50 turn out when CC(C)[C@@H]1NC(=O)[C@H](Cc2c[nH]c3ccccc23)NC(=O)[C@H](CC(=O)O)NC(=O)[C@H](Cc2ccc(C(=O)O)cc2)NC(=O)[C@H](Cc2ccncc2)NC(=O)CSC[C@@H](C(=O)NCC(N)=O)NC(=O)[C@H](CO)NC(=O)[C@H](C(C)C)NC(=O)[C@H](CC2CCCCC2)NC(=O)[C@H](CCN)NC(=O)[C@@H](C)NC(=O)[C@H](CCCN)NC(=O)[C@H](CCN)NC(=O)[C@H](Cc2ccc(-c3ccccc3)cc2)NC1=O [Compound 2544] ({CH2CO}-[4Pal][Phe(4-COOH)]DWV[Bip][Dab][Orn][dA][Dab][Cha]VSCG-NH2; thioether N-14) was run?
Answer: 80.6 nM

Question: How did the IC50 turn out when CC[C@H](C)[C@@H]1NC(=O)[C@H](Cc2ccc(-c3ccccc3)cc2)NC(=O)[C@H](CC(C)C)NC(=O)C(Cc2c[nH]c3ccccc23)NC(=O)[C@H](CC(=O)O)NC(=O)[C@H](Cc2ccc(O)cc2)NC(=O)[C@H](Cc2ccccc2)NC(=O)CSC[C@@H](C(=O)N[C@@H](C)C(N)=O)NC(=O)[C@H](CO)NC(=O)[C@H](C(C)C)NC(=O)[C@H](CC(C)C)NC(=O)[C@H](CC(N)=O)NC(=O)[C@@H](CC(C)C)NC(=O)[C@H](CN)NC1=O (stereo partly drawn) [Compound 1216] ({CH2CO}-FYD[ξW]L[Bip]I[Dap][dL]NLVSCA-NH2; thioether N-14) was run?
Answer: 22.2 nM

Question: CC[C@H](C)[C@@H]1NC(=O)[C@H](Cc2ccc(-c3ccccc3)cc2)NC(=O)[C@H](C(C)C)NC(=O)[C@H](Cc2cccc(C)c2)NC(=O)[C@H](CC(=O)O)NC(=O)[C@H](Cc2ccc(C(=O)O)cc2)NC(=O)[C@H](CN)NC(=O)CSC[C@@H](C(=O)N[C@@H](C)C(N)=O)NC(=O)[C@H]([C@@H](C)O)NC(=O)[C@H](C(C)C)NC(=O)[C@H](CC2CCCCC2)NC(=O)[C@H](CCN)NC(=O)[C@@H](CC(C)C)NC(=O)[C@H](CCCN)NC1=O [Compound 1204] was tested. Which IC50 did it give?
Answer: 5.7 nM

Question: With CC(C)C[C@@H]1NC(=O)[C@H](CCCCN)NC(=O)[C@@H](CC(C)C)NC(=O)[C@H](CCCN)NC(=O)[C@H](C(C)C)NC(=O)[C@H](Cc2ccc(-c3ccccc3)cc2)NC(=O)[C@H](C(C)C)NC(=O)[C@H](Cc2c[nH]c3ccccc23)NC(=O)[C@H](CC(=O)O)NC(=O)[C@H](Cc2ccc(O)cc2)NC(=O)[C@H](CC(N)=O)NC(=O)CSC[C@@H](C(=O)N[C@@H](C)C(N)=O)NC(=O)[C@H]([C@@H](C)O)NC(=O)[C@H](C(C)C)NC1=O [Compound 1130] ({CH2CO}-NYDWV[Bip]V[Orn][dL]KLVTCA-NH2; thioether N-14) as the molecule, how does the IC50 read?
Answer: 19.5 nM

Question: With Cc1cccc(C[C@@H]2NC(=O)[C@H](CC(=O)O)NC(=O)[C@H](Cc3ccc(OCC(=O)O)cc3)NC(=O)[C@H](Cc3cnc[nH]3)NC(=O)CSC[C@@H](C(=O)N[C@@H](CCN)C(N)=O)NC(=O)[C@H](C(C)O)NC(=O)[C@H](C(C)(C)O)NC(=O)[C@H](CC3CCCCC3)NC(=O)[C@H](CCN)NC(=O)[C@@H](CC(C)C)NC(=O)[C@H](CCCN)NC(=O)[C@H](Cc3ccc(OCC(=O)O)cc3)NC(=O)[C@H](Cc3ccc(-c4ccccc4)cc3)NC(=O)[C@H](Cc3ccc(OCC(=O)O)cc3)NC2=O)c1 (stereo partly drawn) [Compound 2649] ({CH2CO}-HY(Carboxymethyl)D[Phe(3-Me)]Y(Carboxymethyl)[Bip]Y(Carboxymethyl)[Orn][dL][Dab][Cha][Val(3-OH)][Thr(3ξ)]C[Dab]-NH2; thioether N-14) as the molecule, how does the IC50 read?
Answer: 7.2 nM
